Laboratory results reported in patent US5157052A, “Method for inhibiting IgE production” (priority 1990, dated 1992).

Test system: MHC Class II
Test: Splenocyte cell surface density/distribution (FACS): MHC Class II
Format: in vivo, mouse (Balb/c female)
Method: One group of 4 unstimulated Balb/c female mice is injected with PBS (Group A). Another (Group B) is injected with 20 μg (±) methyl 11α,16-dihydroxy-16-methyl-9-oxoprosta-5Z,13E-dien-1-oate as in Example 13. […] A 3 cm incision is made with a scalpel above the left hip, and the spleen is cut free from adjoining tissue and placed in a 100 mn plastic culture dish containing 10 ml PBS. The splenic cells are then made into a suspension, by rubbing the spleens between the rough, frosted ends of microscope slides repeatedly until the only remaining particulate matter is connective tissue. Cells are transferred to a 15 ml conical polystyrene tube and centrifuged in a centrifuge at 1200 rpm for 5 minutes. The supernatant is discarded by aspiration and the cell pellet is resuspended in 10 ml PBS, then centrifuged at 1200 rpm for 5 minutes. The supernatant is aspirated and the cell pellet is resuspended in 15 mM Tris, 140 mM Ammonium Chloride, to lyse red blood cells. After incubating at room temperature for 10 minutes the cell suspension is centrifuged at 1200 rpm for 10 minutes. The supernatant is discarded and the cell pellet is resuspended in 10 ml FACS Buffer (PBS containing 0.1% BSA and 0.1% Sodium Azide). The cell suspension is filtered through sterile glass wool plugged in the top of a pasteur pipet. Cells in the flow through are counted using a hemacytometer, then the cell suspension is centrifuged at 1200 rpm for 5 minutes. The supernatant is discarded and the cell pellet is resuspended in a volume of FACS Buffer that will yield 4×10^7 cells/ml. 10 μl (4×10^5 cells) is added to each well of a 96-well V-bottom plate. 25 μl of diluted monoclonal antibody directed against splenocyte cell surface proteins is added to each well: Major Histocompatability Complex (MHC) Class II (M5114, ATCC, Rockville Md.), MHC Class I (M1/42, ATCC), Anti-IgD (JA12.5, ATCC, Rockville, Md.), Thymocyte (Thy)-1 (JIJ, ATCC), B220 (14.8, ATCC), Kappa light chain (187, ATCC), IL-2 Receptor (7D4, ATCC), Lyt-1 (7.313, ATCC) and CD23 (biotinylated B3B4) and incubated on ice for 30 minutes. 100 μl 10% BSA 0.1% sodium azide is added to each well, then the plates are centrifuged at 1200 rpm for 10 minutes. The liquid is removed by aspiration and the cell pellets are resuspended in 100 μl FACS Buffer, and centrifuged at 1200 rpm for 5 minutes. […] Samples are transferred to individual tubes and 10,000 cells are analyzed. Using the Lysis software (Becton Dickinson, Mountain View, Calif.) the mean channel log fluorescence and percent positive cells are determined for the entire cell population. […]

CCCCC(C)(O)C/C=C/[C@H]1[C@H](O)CC(=O)[C@@H]1C/C=C\CCCC(=O)OC (mixture of isomers) [(±) methyl 11α,16-dihydroxy-16-methyl-9-oxoprosta-5Z,13E-dien-1-oate]
Percentage Positive Cells (anti-IgD stimulated mice, 20 μg days 3 and 4, day 7 (PBS 59.8)): 68.6 ± 5.1%
Mean Channel Log Fluorescence (anti-IgD stimulated mice, 20 μg days 3 and 4, day 7 (PBS 134)): 137 ± 15
Percentage Positive Cells (unstimulated mice, 20 μg (PBS 56.2)): 56.9 ± .4%
Mean Channel Log Fluorescence (unstimulated mice, 20 μg (PBS 148)): 149 ± 8
